Measured values: US20120027807A1, “TISSUE ENGINEERED MYOCARDIUM AND METHODS OF PRODUCTION AND USES THEREOF” (THE GENERAL HOSPITAL CORPORATION, priority 2008, published 2012)

Columns and labels:
[1] = system: R+G+ derived ventricular myocytes; format: cell-based, mouse
[2] = system: gap junctions (e.g. Connexin 43); assay: Heptanol wash-in / wash-out on muscular thin film; format: cell-based, mouse
Source text: FIGS. 10A-10D show the tissue engineered myocardium on a muscular thin film derived from cardiac progenitor cells. […] All the heptanol was not washed-out resulting in the reduced contractility after cell-cell electrical coupling was restored.

SMILES	effect on the transmembrane action potential [1]	contractions after heptanol wash-out ([2]; partial wash-out)	coupling of cardiomyocytes by gap junctions ([2]; wash-in then wash-out of heptanol, MTF contractile force over time)
NC1=N[C@H](O)[C@H]2[C@H]3O[C@]4(O)O[C@@H]([C@@H](O)[C@@]2(N1)[C@@H]4O)[C@]3(O)CO [TTX, tetrodotoxin]	ablated the action potential		
CCCCCCCO [heptanol]		partial washout restores contractions	reversibly blocked
